Reference: publication PMC12138827, “Molecular Modeling and In Vitro Evaluation of Thioureas and Arylthioureas as Urease Inhibitors” (ACS Omega, 2025)
Several values for one entry are separate records, joined by “and”; a condition that tells them apart may be missing. Identical values can stand only once. Entries after “also recorded” stand apart in the source; their conditions may differ. Like-named read-outs stand apart in the source and are kept apart here. Marks after values point to notes of the source that are not given here.

Columns and labels:
[1] = biological target: T1, C. ensiformis urease (CEU) (Canavalia ensiformis, UniProt P07374); assay: biochemical; conditions: triplicate; for inhibition at 2000 µM: read-out: %I ± SD (inhibitory percentage against CEU), test substance at 2.00 mM; for %I ± SD (inhibitory percentage against CEU): test substance at 2.00 mM; for IC50: 0.2-2.0 mM
T1 construct: purchased Merck (Sigma-Aldrich) Jack bean type III (CAS 9002-13-5)
T1 sequence (P07374 whole entry, looked up): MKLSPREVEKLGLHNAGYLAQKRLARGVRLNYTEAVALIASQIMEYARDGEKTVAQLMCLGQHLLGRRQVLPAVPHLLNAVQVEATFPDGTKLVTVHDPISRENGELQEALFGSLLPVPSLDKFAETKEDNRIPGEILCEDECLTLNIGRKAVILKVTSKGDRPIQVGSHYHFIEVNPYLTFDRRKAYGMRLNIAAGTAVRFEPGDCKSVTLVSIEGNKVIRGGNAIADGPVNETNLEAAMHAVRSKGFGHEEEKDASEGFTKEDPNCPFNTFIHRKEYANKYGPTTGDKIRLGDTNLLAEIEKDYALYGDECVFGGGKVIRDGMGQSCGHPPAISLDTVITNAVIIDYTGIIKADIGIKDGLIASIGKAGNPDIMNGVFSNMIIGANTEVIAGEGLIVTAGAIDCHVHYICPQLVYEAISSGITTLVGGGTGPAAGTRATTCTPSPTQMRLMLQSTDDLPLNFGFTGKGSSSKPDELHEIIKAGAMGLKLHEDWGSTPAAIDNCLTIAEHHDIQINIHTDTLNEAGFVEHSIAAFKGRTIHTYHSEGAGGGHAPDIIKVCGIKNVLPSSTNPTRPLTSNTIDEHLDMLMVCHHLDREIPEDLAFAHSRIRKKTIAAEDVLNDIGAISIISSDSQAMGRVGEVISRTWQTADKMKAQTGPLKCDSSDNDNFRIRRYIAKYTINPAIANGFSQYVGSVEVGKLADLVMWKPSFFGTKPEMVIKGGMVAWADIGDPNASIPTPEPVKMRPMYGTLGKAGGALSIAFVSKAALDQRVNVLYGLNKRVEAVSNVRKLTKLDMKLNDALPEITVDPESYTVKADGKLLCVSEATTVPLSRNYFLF
Procedure: The in vitro inhibitory activity of C. ensiformis urease was conducted using the indophenol reaction, also known as the Berthlot Reaction. Commercially purchased urease from Merck (Sigma-Aldrich), Jack bean type III (CAS 9002–13–5), was utilized, and the methodology was adapted from Khan et al. (2017).
(§1) The assays were performed in triplicate on a 96-well plate, as described by our research group. , The procedure involved adding 100 μL of urea (10 mM), 55.0 μL of sodium phosphate buffer solution (100 mM, pH 7.4) supplemented with EDTA (1 mM), and 10 μL of the test substance at 2.00 mM for inhibition percentage assays, previously dissolved in methanol. Subsequently, 25.0 μL of urease enzyme solution (0.0035 mM) was added, and the reaction mixture was incubated at 45–50 °C for 30 min. After incubation, 40.0 μL of phenol reagent (1% phenol and 0.05% sodium nitroprusside) and 40.0 μL of alkaline reagent (1.0% NaOH and […]) were added. The reaction rested for 15 min, and the absorbance was read at 630 nm using a Loccus model LMR-96i UV–visible microplate reader.
Thiourea (2.00 mM) served as the standard inhibitor.
To determine half of the maximum inhibitory concentration (IC50), substances LaSMMed 42, LaSMMed 122–126, and the thiourea control were tested at different concentrations (0.2, 0.4, 0.8, 1.0, 1.4, and 2.0 mM). The IC50 values were calculated using GraphPad Prism 8.0.2, employing a dose–response curve.

[2] = biological target: T1, C. ensiformis urease (CEU); assay: Enzyme kinetics on C. ensiformis urease (Michaelis–Menten, Lineweaver–Burk plots); type: biochemical; conditions: for Vmax: CEU kinetic parameter with the compound; for Ki: Lineweaver–Burk, compound 0.50 and 0.25 mM; for Inhibition type (mechanism of action): Lineweaver–Burk plots; for Alfa (α): mixed inhibitors
Procedure: Enzyme kinetics were studied following previous work by our research group. , The same reaction mixture was applied to determine inhibitory activity, and the IC50 was adopted to study enzyme kinetics in C. ensiformis urease. However, only two concentrations of the test substance were used (0.50 and 0.25 mM), along with five different concentrations of urea substrate (0.66, 1.00, 1.50, 2.00, and 2.50 mM) for each sample. The absorbance of the reaction mixture was recorded at 630 nm using a Loccus model LMR-96i UV–visible microplate reader. Michaelis–Menten (nonlinear regression) and Lineweaver–Burk (linear regression) plots, as well as the determination of inhibition constants (K i ), K m, α, and V max, were made using GraphPad Prism software (version 8.0.2). Enzymatic activity was calculated using an ammonium chloride calibration curve. One unit of enzymatic activity (U) is the amount of enzyme capable of releasing 1 μmol of ammonia per minute of reaction (U = 1 μmol NH4 ^+ min^–1 μmol enzyme^–1). The assays were performed in triplicate.

[3] = Solubility under the urease assay conditions; type: physicochemical; conditions: urease assay medium
Procedure: as §1

| Structure (SMILES) | inhibition at 2000 µM [1] | %I ± SD (inhibitory percentage against CEU) [1] | Vmax [2] | Ki [2] | IC50 ([1]; IC50 ± SD) | further results |
| --- | --- | --- | --- | --- | --- | --- |
| CCCCCCNC(=S)NC(=O)/C=C/c1ccccc1 [compound 40] | 30 to 40% |  |  |  |  |  |
| CCCCCCNC(=S)NC(=O)/C=C/c1ccccc1 [LaSMMed 40] |  | 39.34 ± 1.72^c % |  |  |  |  |
| Cc1ccc(NC(=S)NC(=O)/C=C/c2ccccc2)cc1 [compound 46] | 13% |  |  |  |  |  |
| O=C(/C=C/c1ccccc1)NC(=S)Nc1ccc(F)cc1 [LaSMMed 45] | 24% | 23.98 ± 1.44^e % |  |  |  |  |
| NC(=S)NC(=O)/C=C/c1ccccc1 [LaSMMed 42] | 82% | 82.37 ± 0.34^d % |  |  |  |  |
| COc1ccc(NC(N)=S)cc1 [LaSMMed 125] | 84% | 84.56 ± 1.23^b % | 737.50 µmol/min | 80 µM | 510 ± 19 µM | Inhibition type (mechanism of action) [2]: competitive inhibition; also recorded: competitive inhibitor |
| Cc1ccc(NC(N)=S)cc1 [LaSMMed 126] | 87.86 ± 0.48% |  | 732.30 µmol/min | 100 µM | 568 ± 22 µM | Inhibition type (mechanism of action) [2]: mixed-type inhibition; Alfa (α) [2]: 4.88 |
| NC(=S)Nc1ccc([N+](=O)[O-])cc1 [compound 124] |  |  |  | ~100 µM |  |  |
| NC(N)=S [Thiourea] |  | 84.12 ± 0.84^d % |  |  |  | IC50 ([1]; read-out: IC50 ± SD): 504 ± 25 µM; %I ± SD (inhibitory percentage against CEU) ([1]; listed as thiourea): 84% |
| Cc1ccc(NC(N)=S)cc1 [compound 126] |  |  |  | ~100 µM | ~575 µM |  |
| CNC(=S)NC(=O)/C=C/c1ccccc1 [LaSMMed 37] | 30 to 40% | 33.53 ± 1.06^c % |  |  |  |  |
| NC(=S)Nc1ccc(Cl)cc1 [LaSMMed 122] | 87.6 ± 1.72% |  | 735.50 µmol/min | 90 µM and 89 µM | ~575 µM and 575 µM | Alfa (α) [2]: 6.00 |
| Cc1ccc(NC(=S)NC(=O)/C=C/c2ccccc2)cc1 [LaSMMed 46] |  | 13.04 ± 2.46^f % |  |  |  |  |
| NC(=S)Nc1ccc(Br)cc1 [LaSMMed 123] | 86.18 ± 0.75% |  | 741.30 µmol/min | 110 µM | 493 ± 7 µM | Alfa (α) [2]: 9.75 |
| COc1ccc(NC(=S)NC(=O)/C=C/c2ccccc2)cc1 [LaSMMed 44] |  |  |  |  |  | Solubility under the tested conditions [3]: insoluble |
| NC(=S)Nc1ccc([N+](=O)[O-])cc1 [LaSMMed 124] | 88.3 ± 0.26% |  | 733.50 µmol/min | 130 µM | 464 ± 3 µM | Alfa (α) [2]: 6.13 |
